Data taken from US20120316241A1, “REMEDY FOR CARTILAGE-RELATED DISEASES” (ONO PHARMACEUTICAL CO., LTD., priority 2003, published 2012).

What was measured:
chondrocyte strain = assay: gene expression profile by cDNA microarray, reconfirmed by RT-PCR; type: cell-based, mouse; details: 1 μM, 72 hours, medium with 5 μM indometacin
Protocol: Culturing of each chondrocyte was started at a cell density of 3×10^5 cells/100 mm culture dish, and 2 days and 21 days thereafter, respective total RNA samples were prepared using Trizol Reagent (mfd. by Life Technologies) in accordance with the instructions attached thereto. The RT reaction was carried out in accordance with the instructions attached to RT-PCR kit (mfd. by Life Technologies) using 1 μg of the thus prepared total RNA. The PCR reaction was carried out in 25 μl of a reaction liquid (20 μmol sense primer, 20 μmol antisense primer, 25 mM MgCl2, 0.2 mM dNTP, 1 unit γTaq polymerase (mfd. by TOYOBO., LTD.)) containing 1 μl of the RT reaction liquid. The PCR reaction (in the reaction, starting reaction was carried out at 94° C. for 5 minutes, and then the following reaction (denaturation reaction at 94° C. for 1 minute, annealing reaction at 72° C. for 1 minute and elongation reaction at 72° C. for 7 minutes) was carried out 35 times) was carried out using Gene Amp 9700 (mfd. by PE Applied Biosystem). Sequences of the primers used in the above RT-PCR are shown in the following.
Gene expression profile of chondrocytes was analyzed by a custom-made cDNA microarray system. This system was prepared by spotting 78 species of bone- and cartilage-related mouse genes and 900 species of mouse genes (InteliGene CHIP ver. 1) (mfd. by Takara Bio INC.) on a glass slide.
A chondrocyte was cultured for 72 hours in DMEM/F12 medium (contains 5 μM indometacin) in the presence or absence of each of the selective EP agonists shown in Example 2 (1 μM), and respective total RNA samples were extracted. A fluorescent cDNA probe was synthesized using 20 μg of each of the total RNA samples as the template, and using 400 U of M-MLV reverse transcriptase and Cy3 or Cy5-dUTP (Amersham Biosciences).
Each cDNA probe dissolved in a reaction buffer (6×SSC/0.2% SDS, 5×Denhardt's solution, 0.1 mg/ml denatured salmon sperm DNA) was allowed to hybridize with the spots on the glass slide at 65° C. overnight. The slide was washed with a washing liquid (2×SSC/0.2% SDS) twice at 55° C. for 5 minutes and then once at 65° C. for 5 minutes, and finally washed with 0.05×SSC solution at room temperature for 1 minute. The hybridization signal was visualized by Affymetrix 418 Array Scanner (mfd. by Affymetrix), and analyzed by ImaGene software (mfd. by BioDiscovery). Regarding the expressed genes in which changes were confirmed, reconfirmation was carried out by the RT-PCR method.

[1] = tested on: rat femur head articular cartilage; assay: PCNA immunohistological staining of organ-cultured articular cartilage; details: 1 μM, after 7 days of organ culture
Protocol: (§1) The cartilage deficiency model was prepared from a femoral condyle articular cartilage collected from a rat of 5 weeks of age, by cutting the cartilage layer alone such that damage is not given to the subchondral bone. The femur was soaked in the DMEM/Ham's F12 medium (contains 5 μM indometacin) and cultured for 21 days in the presence (treated group) or absence (control group) of the selective EP agonist described in Example 2 (10 μM or 1 μM). Area of the newly formed cartilage tissue was measured using Image-Pro Plus software (mfd. by Planetron) and calculated as an area ratio with the untreated lateral joint face.
(§2) The formalin-fixed sections were prepared on the 0th day, 7th day, 14th day and 21st day starting from the commencement of tissue culturing described in Example 8. Each section was decalcified with EDTA (10% w/v) for 7 days and then sliced into a section of 4 μm in thickness. The hematoxylin-eosin staining and alcian blue staining were carried out by the aforementioned method.
Regarding the PCNA immuno histological staining, the prepared slide was treated with 3% hydrogen peroxide and then subjected to a blocking treatment using a blocking solution (mfd. by Dako Cytomation). […] After washing, the reaction with a substrate, 3,3′-diaminobenzidine tetrahydrochloride (mfd. by Dako Cytomation), was detected. […]

[2] = tested on: femoral condyle articular cartilage; assay: cartilage deficiency model, femoral condyle articular cartilage organ culture; parameters: species or system rat
Protocol: as §1, §2

[3] = tested on: human primary-cultured chondrocyte; assay: cell growth activity, BrdU incorporation assay; type: cell-based; details: 1 μM overnight, then 8 hours with BrdU; normal cartilage and RA articular cartilage derived cells
Protocol: Human primary-cultured chondrocytes were isolated from knee articular cartilages of three patients who underwent above-knee amputation due to femur osteosarcoma. In addition, other human primary-cultured chondrocytes were obtained from rheumatic arthritis patients who underwent artificial hip joint replacement. Isolation operation of these cells was also carried out by the method described in the above.
The cell growth activity was measured by a BrdU incorporation assay using BrU labeling, detection kit (mfd. by Boehringer Mannheim GmbH).
Culturing of each chondrocyte was started at a cell density of 2×10^3 cells/96 well culture dish, and after adhesion of the cells, the selective EP agonist described in Example 2 (1 μM) was added thereto to start the culturing at 37° C. overnight. Subsequently, the culturing was continued for 8 hours together with BrdU (final concentration 110 μM), and the labeled nucleus was detected by the method of the instructions attached to the kit.

MMA2 chondrocyte strain = assay: intracellular cAMP concentration (cAMP assay kit); type: cell-based, mouse; details: 12 hours with agonist
Protocol: Cartilage tissues of a femur and the shinbone collected from a p53 defective mouse of 4 weeks of age (Tukada, T., Oncogene, 1992, vol. 8, pp. 3313-3322) were cut into pieces, treated with 0.1% collagenase and then cultured (culture conditions; 5% CO2, 37° C., under humidification, hereinafter, this was carried out under the same conditions) using DMEM/Ham's F12 (1:1) medium (contains 10% fetal bovine serum (FBS) and antibiotics (to be referred to as DMEM/Ham's F12 medium hereinafter)). By carrying out dilution sub-culturing from the cell group under a 80 to 90% confluent state, a chondrocyte strain MMA2 recognized by an international deposition number FERM BP-10029 was isolated. […]
Culturing of each chondrocyte was started at a cell density of 1×10^4 cells/24 well culture dish, and 2 hours thereafter, each of the selective EP agonists shown in Example 2 was added thereto to continue the culturing for additional 12 hours. The intracellular cAMP concentration was measured using a cAMP assay kit (Cayman Chemical Company) and in accordance with the instructions attached to the kit, using, as a sample, lysed supernatant of the cell prepared by lysing the same with a cell lysis liquid (0.1 mM Tris/HCl buffer, pH 7.2).

Row | Structure (SMILES) | expression of fibronectin, integrin, cyclin D1, MAZ, AP2α and 14-3-3γ genes (chondrocyte strain) | expression of osteopontin and MGP genes (chondrocyte strain) | PCNA staining affinity [1] | ratio of the regenerated tissue (area ratio with the untreated lateral joint face) ([2]; 1 μM or 10 μM, cultured for 21 days) | tissue regeneration image (hematoxylin-eosin, alcian blue staining) ([2]; treated group against control group, 21 days) | DNA synthesis (BrdU incorporation) [3] | intracellular cAMP (MMA2 chondrocyte strain)
1 | C=CCC1(C(O)C/C=C/[C@@H]2[C@@H](C/C=C\CCCC(=O)O)[C@H](Cl)C[C@H]2O)CCC1 (stereo partly drawn) [EP2 agonist, (5Z,9β,11α,13E)-17,17-propano-11,16-dihydroxy-9-chloroprostar-5,13,19-trienoic acid] | stimulated | reduced | distinctively increased | increased periodically and concentration-dependently | a regeneration image having a staining affinity of similar to that of a remaining existing cartilage (right side) was observed | DNA synthesis accelerating effect | increased concentration-dependently
2 | CCCCC[C@@H](/C=C/[C@H]1[C@H](OC)CC(=O)[C@@H]1C/C=C\CCCC(=O)O)OC [EP3 agonist, 11α,15α-dimethoxy-9-oxoprosta-5Z,13E-dienoic acid] | stimulated | reduced | distinctively increased |  |  |  | 
